Among the data in US20240199623A1 (ILDONG PHARMACEUTICAL CO., LTD., priority 2020, published 2024) are EC50 values, retold here.

For the experiment, the target named is human wild type-CFTR (Homo sapiens, UniProt P13569). The experiment can be described thus: Cell-based YFP assay. Further details: expressed in transfected cells; host or cells: CHO-K1 (Chinese hamster ovary). To be noted: CHO-K1 cells expressing human wild type-CFTR and YFP-H148Q/I152L; forskolin 20 μM = 100% activity; read-out: Cell-based YFP Assay (EC50) Concentration Range. The method in brief:
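I⁻-driven YFP fluorescence quenching at 37 °C: 2 s baseline, addition of 140 mM iodide solution, then 14 s of readings at 0.4 s intervals. Cells were CHO-K1 expressing human wild-type CFTR plus YFP-H148Q/I152L. EC50 derived from averaged triplicates.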

human wild type-CFTR, sequence (P13569 whole entry): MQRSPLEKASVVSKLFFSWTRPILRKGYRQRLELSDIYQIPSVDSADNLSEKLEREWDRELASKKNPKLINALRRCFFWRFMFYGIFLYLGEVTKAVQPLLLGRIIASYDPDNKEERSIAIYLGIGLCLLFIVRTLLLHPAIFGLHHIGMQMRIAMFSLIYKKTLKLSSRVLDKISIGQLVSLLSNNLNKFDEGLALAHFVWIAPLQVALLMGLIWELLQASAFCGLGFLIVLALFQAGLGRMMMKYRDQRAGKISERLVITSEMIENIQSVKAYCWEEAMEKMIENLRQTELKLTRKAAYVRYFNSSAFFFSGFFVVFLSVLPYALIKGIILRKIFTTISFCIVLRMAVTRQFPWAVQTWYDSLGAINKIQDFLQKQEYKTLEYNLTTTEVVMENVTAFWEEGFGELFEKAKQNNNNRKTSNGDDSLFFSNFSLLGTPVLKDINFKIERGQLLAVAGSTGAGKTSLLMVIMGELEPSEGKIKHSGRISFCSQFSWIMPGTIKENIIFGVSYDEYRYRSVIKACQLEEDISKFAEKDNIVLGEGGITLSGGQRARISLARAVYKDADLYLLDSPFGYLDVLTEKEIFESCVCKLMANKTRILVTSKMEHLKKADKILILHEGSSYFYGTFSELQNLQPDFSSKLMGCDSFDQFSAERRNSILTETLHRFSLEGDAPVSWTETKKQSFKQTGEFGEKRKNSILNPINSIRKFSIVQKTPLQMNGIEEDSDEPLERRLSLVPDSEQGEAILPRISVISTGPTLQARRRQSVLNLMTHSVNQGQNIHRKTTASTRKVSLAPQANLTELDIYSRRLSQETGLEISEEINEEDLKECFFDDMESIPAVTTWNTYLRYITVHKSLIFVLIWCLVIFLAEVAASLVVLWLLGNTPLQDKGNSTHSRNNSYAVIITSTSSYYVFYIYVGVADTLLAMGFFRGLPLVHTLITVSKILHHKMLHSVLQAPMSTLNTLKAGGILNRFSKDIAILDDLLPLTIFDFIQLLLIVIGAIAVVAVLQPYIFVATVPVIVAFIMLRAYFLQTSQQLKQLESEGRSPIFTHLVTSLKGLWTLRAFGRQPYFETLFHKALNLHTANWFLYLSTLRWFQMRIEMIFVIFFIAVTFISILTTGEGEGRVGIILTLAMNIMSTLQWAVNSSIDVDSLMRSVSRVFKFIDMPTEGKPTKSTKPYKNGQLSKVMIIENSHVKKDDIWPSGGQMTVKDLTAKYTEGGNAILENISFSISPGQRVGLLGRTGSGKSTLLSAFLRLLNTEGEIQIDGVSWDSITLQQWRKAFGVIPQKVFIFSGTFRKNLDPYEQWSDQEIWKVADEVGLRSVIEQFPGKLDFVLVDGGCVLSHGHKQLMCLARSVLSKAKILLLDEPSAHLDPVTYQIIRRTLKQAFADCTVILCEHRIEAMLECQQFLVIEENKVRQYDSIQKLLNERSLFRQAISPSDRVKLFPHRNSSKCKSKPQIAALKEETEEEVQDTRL

Take `COc1ccc(-c2ccnc3cc(C(=O)N4CC(C)N(C(=O)c5ccccc5)C(C)C4)nn23)cc1OC` (centres unmarked) [Compound 348, (4-benzoyl-3,5-dimethylpiperazin-1-yl) (7-(3,4-dimethoxyphenyl)pyrazolo [1,5-a]pyrimidine-2-yl)methanone]: the EC50 was 200 to 2000 nM. On to `COc1ccc(-c2ccnc3cc(C(=O)Nc4ccc(C(=O)N5CCC(N6CCOCC6)CC5)cc4F)nn23)cc1OC` [Compound 349, 7-(3,4-dimethoxyphenyl)-N-(2-fluoro-4-(4-morpholinopiperidine-1-carbonyl)phenyl)pyrazolo [1,5-a]pyrimidine-2-carboxamide], for which the EC50 is less than 200 nM. Then `COc1ccc(-c2ccnc3cc(C(=O)N4CCN(C(=O)c5ccc(F)cc5)[C@@H](C)C4)nn23)cc1OC` [Compound 350, (S)-(7-(3,4-dimethoxyphenyl)pyrazolo[1,5-a]pyrimidin-2-yl)(4-(4-fluorobenzoyl)-3-methylpiperazin-1-yl) methanone], with less than 200 nM; and `COc1ccc(-c2ccnc3cc(C(=O)N4CCN(C(=O)c5ccc(C)cc5)[C@@H](C)C4)nn23)cc1OC` [Compound 351, (S)-(7-(3,4-dimethoxyphenyl)pyrazolo[1,5-a]pyrimidin-2-yl)(3-methyl-4-(4-methylbenzoyl)piperazin-1-yl)methanone], with less than 200 nM.

For the compound `COc1ccc(-c2ccnc3cc(C(=O)N4CCN(C(=O)c5ccco5)[C@@H](C)C4)nn23)cc1OC` [Compound 353, (S)-(7-(3,4-dimethoxyphenyl)pyrazolo[1,5-a]pyrimidin-2-yl)(4-(furan-2-carbonyl)-3-methylpiperazin-1-yl)methanone], the EC50 is less than 200 nM. Turning to `COc1ccc(-c2ccnc3cc(C(=O)N4CCN(C(=O)Nc5ccccc5)[C@@H](C)C4)nn23)cc1OC` [Compound 354, (S)-4-(7-(3,4-dimethoxy-phenyl)pyrazolo[1,5-a]pyrimidine-2-carbonyl)-2-methyl-N-phenylpiperazine-1-carboxamide], the EC50 is less than 200 nM. Then `COc1ccc(-c2ccnc3cc(C(=O)N4CCN(C(=O)c5cc(F)ccc5F)[C@@H](C)C4)nn23)cc1OC` [Compound 356], with less than 200 nM; and `COc1ccc(-c2ccnc3cc(C(=O)N4CCN(C(=O)c5ccncc5)[C@@H](C)C4)nn23)cc1OC` [Compound 357, (S)-(7-(3,4-dimethoxyphenyl)pyrazolo[1,5-a]pyrimidin-2-yl)(4-isonicotinoyl-3-methylpiperazin-1-yl)methanone], with 200 to 2000 nM.

For the compound `COc1ccc(-c2ccnc3cc(C(=O)N4C[C@@H](C)N[C@@H](C)C4)nn23)cc1OC` [Compound 358, (7-(3,4-dimethoxyphenyl)pyrazolo[1,5-a]pyrimidin-2-yl) ((3R,5S)-3,5-dimethylpiperazin-1-yl) methanone], the EC50 was in the range of 200 to 2000 nM.

Turning to `COc1ccc(-c2ccnc3cc(C(=O)N4C[C@H](C)N[C@@H](C)C4)nn23)cc1OC` [Compound 359, (7-(3,4-dimethoxyphenyl)pyrazolo[1,5-a]pyrimidin-2-yl) ((3S,5S)-3,5-dimethylpiperazin-1-yl)methanone], the EC50 was in the range of 200 to 2000 nM. As for `COc1ccc(-c2ccnc3cc(C(=O)N4C[C@H](C)NC[C@H]4C)nn23)cc1OC` [Compound 360, (7-(3,4-dimethoxyphenyl)pyrazolo[1,5-a]pyrimidin-2-yl) ((2R,5S)-2,5-dimethylpiperazin-1-yl)methanone], the EC50 fell in the range of 200 to 2000 nM.

For `COc1ccc(-c2ccnc3cc(C(=O)N4CCNC5(CC5)C4)nn23)cc1OC` [Compound 361, (7-(3,4-dimethoxyphenyl)pyrazolo[1,5-a]pyrimidin-2-yl)(4,7-diazaspiro[2.5]octan-7-yl)methanone], the EC50 fell in the range of 200 to 2000 nM. The value for `COc1ccc(-c2ccnc3cc(C(=O)N4C[C@H](C)NC[C@@H]4C)nn23)cc1OC` [Compound 362, (7-(3,4-dimethoxyphenyl)pyrazolo[1,5-a]pyrimidin-2-yl) ((2S,5S)-2,5-dimethylpiperazin-1-yl)methanone] was 200 to 2000 nM; that for `COc1ccc(-c2ccnc3cc(C(=O)N4C[C@@H](C)N(C(=O)c5ccccc5)[C@@H](C)C4)nn23)cc1OC` [Compound 363, ((3R,5S)-4-benzoyl-3,5-dimethylpiperazin-1-yl)(7-(3,4-dimethoxyphenyl)pyrazolo[1,5-a]pyrimidin-2-yl) methanone] was less than 200 nM; that for `COc1ccc(-c2ccnc3cc(C(=O)N4C[C@H](C)N(C(=O)c5ccccc5)[C@@H](C)C4)nn23)cc1OC` [Compound 364, ((3S,5S)-4-benzoyl-3,5-dimethylpiperazin-1-yl) (7-(3,4-dimethoxyphenyl)pyrazolo[1,5-a]pyrimidin-2-yl)methanone] was less than 200 nM.

For `COc1ccc(-c2ccnc3cc(C(=O)N4C[C@H](C)N(C(=O)c5ccccc5)C[C@H]4C)nn23)cc1OC` [Compound 365, ((2R,5S)-4-benzoyl-2,5-dimethylpiperazin-1-yl)(7-(3,4-dimethoxyphenyl)pyrazolo[1,5-a]pyrimidin-2-yl)methanone], the EC50 is less than 200 nM. As for `COc1ccc(-c2ccnc3cc(C(=O)N4C[C@H](C)N(C(=O)c5ccccc5)C[C@@H]4C)nn23)cc1OC` [Compound 366, ((2S,5S)-4-benzoyl-2,5-dimethylpiperazin-1-yl)(7-(3,4-dimethoxyphenyl)pyrazolo[1,5-a]pyrimidin-2-yl)methanone], the EC50 is less than 200 nM.

In the case of `COc1ccc(-c2ccnc3cc(C(=O)N4CCN(C(=O)c5ccccc5)C5(CC5)C4)nn23)cc1OC` [Compound 367, (4-benzoyl-4,7-diazaspiro [2.5]octan-7-yl)(7-(3,4-dimethoxyphenyl)pyrazolo[1,5-a]pyrimidin-2-yl)methanone], the EC50 is less than 200 nM. Then `COc1ccc(-c2ccnc3cc(C(=O)N4CCN(C(=O)c5ccccc5F)[C@@H](C)C4)nn23)cc1OC` [Compound 368, (S)-(7-(3,4-dimethoxyphenyl)pyrazolo[1,5-a]pyrimidin-2-yl)(4-(2-fluorobenzoyl)-3-methylpiperazin-1-yl)methanone], with less than 200 nM. Consider `COc1ccc(-c2ccnc3cc(C(=O)N4CCN(C(=O)c5cccc(C)c5)[C@@H](C)C4)nn23)cc1OC` [Compound 369, (S)-(7-(3,4-dimethoxyphenyl)pyrazolo[1,5-a]pyrimidin-2-yl)(3-methyl-4-(3-methylbenzoyl)piperazin-1-yl)methanone], for which the EC50 is less than 200 nM. The value for `COc1ccc(-c2ccnc3cc(C(=O)N4CCN(C(=O)c5ccoc5)[C@@H](C)C4)nn23)cc1OC` [Compound 370, (S)-(7-(3,4-dimethoxyphenyl)pyrazolo[1,5-a]pyrimidin-2-yl)(4-(furan-3-carbonyl)-3-methylpiperazin-1-yl)methanone] was less than 200 nM; that for `CC[C@H]1CN(C(=O)c2cc3nccc(-c4ccc(OC)c(OC)c4)n3n2)CCN1` [Compound 371, (S)-(7-(3,4-dimethoxyphenyl)pyrazolo[1,5-a]pyrimidin-2-yl)(3-ethylpiperazin-1-yl)methanone] was 200 to 2000 nM. For `COc1ccc(-c2ccnc3cc(C(=O)N4CCN[C@@H](C(C)C)C4)nn23)cc1OC` [Compound 372, (S)-(7-(3,4-dimethoxyphenyl)pyrazolo[1,5-a]pyrimidin-2-yl)(3-isopropylpiperazin-1-yl)methanone], the EC50 was 200 to 2000 nM.
